The values that follow come from paper PMC9654546, “Identification of an IGF2BP2-Targeted Peptide for Near-Infrared Imaging of Esophageal Squamous Cell Carcinoma” (Molecules, 2022).

Series [1] relates to KYSE-30 cells. Briefly: Flow cytometry of cells incubated with Cy5 conjugated peptides. The class given is cell-based, human. The following applies: Cy5 conjugated peptide 50 μM, 15 min, room temperature, 10,000 gated cells. Here is the method: When the cells in the 6 cm dish were 80–90% grown, they were harvested with Accutase (Sigma-Aldrich, MO, USA) and incubated with Cy5 conjugated peptides at a concentration of 50 μM for 15 min at room temperature, protected from light. After incubation, the cells were washed 3 times with ice-cold PBS and resuspended in 200 µL of PBS. Flow cytometry was performed on a CytoFLEX LX flow cytometer (Beckman Coulter, IN, USA) and eventually, 10,000 gated cells were collected for analysis. The results were finally analyzed by flow cytometry using Flow Jo software (v7.6, BD Biosciences, OR, USA).

The subject of series [2] is KYSE-30 cells. Put plainly: Immunofluorescence staining (confocal) of cells with Cy5 conjugated peptides. The series is classed as cell-based, human. The following applies: IGF2BP2-positive KYSE-30 cells, fixed and permeabilised, Cy5 conjugated peptide 80 μM overnight at 4 °C. As for the experimental part:
Approximately 5 × 10^4 cells were seeded onto fibronectin-coated coverslips in 24-well plates and fixed with 4% paraformaldehyde until the cells reached about 50% confluence. After permeabilization with 0.5% Triton X-100 (Millipore, MA, USA) for 10 min, the cells were blocked with 5% BSA for 0.5 h and subsequently incubated with Cy5 conjugated peptides at a concentration of 80 μM overnight at 4 °C. The next day, 1 μg/mL of diaminophenyl indole (DAPI) was added to stain the nucleus after washing with phosphate-buffered saline (PBS). Thereafter, the coverslips were mounted with ProLong Gold anti-fade (Invitrogen P26930, CA, USA), and the visualizations were conducted using confocal laser-scanning microscopy (Zeiss LSM880, Oberkochen, Germany).

The test system of the next series is KYSE-30 xenografts. Briefly: Near-infrared fluorescence imaging and ex vivo biodistribution in KYSE-30 bearing xenograft models. Set-up: species or system mice. Here is the method: Human esophageal cancer cell lines EC-9706, EC-109, and TE-1 were acquired from the Institute of Basic Medical Science, Chinese Academy of Medical Sciences, whereas KYSE-30, KYSE-410, KYSE-450, and KYSE-520 were obtained from the DSMZ (Deutsche Sammlung von Mikroorganismen und Zellkulturen). All cells were maintained in an incubator containing a humid atmosphere of 5% CO2 at 37 °C. All cells were cultured in RPMI-1640 medium supplemented with 10% fetal bovine serum (FBS) and penicillin-streptomycin solution. Mice aged 4 weeks were purchased from Guangdong Medical Laboratory Animal Center (Guangdong, China). Subcutaneous tumor models were constructed by subcutaneously injection of about 1 × 10^7 cells with a 20% suspension of Matrigel (Corning, NY, USA). All animal experiments were performed under a protocol approved by the Animal Ethics Committee of The Fifth Affiliated Hospital of Sun Yat-sen University.
Mice bearing subcutaneous esophageal tumors were injected with an equivalent of 50 μg Cy5-peptide via a tail vein. After circulation, the mice were anesthetized with isoflurane, and fluorescence images were captured at different time points of 10 min, 1 h, 2 h, 4 h, and 6 h by an IVIS Spectrum (PerkinElmer, MA, USA) with an excitation wavelength of 640 nm and an emission wavelength of 670 nm. The region of interest (ROI) was manually sketched to calculate the intensity of the fluorescence as mean fluorescence intensity (MFI). In addition, the tumors and main organs (bladder, liver, heart, lungs, stomach, spleen, skin, kidneys, colon, muscles, bones, and blood) were dissected and imaged for biodistribution analysis.

Series [3] has as its target recombinant IGF2BP2 protein (approximately 29 kDa) (human). Briefly: ELISA; phage ELISA; purified IGF2BP2 protein coated on a 96-well plate, phage clones after the third round of screening, OD at 450 nm.
Where [4] appears, read: KYSE-30 xenograft mice, 50 μg Cy5-peptide via tail vein, ROI quantification, n = 3.
[5] abbreviates: ex vivo optical imaging of tumors and main organs 2 h postinjection, 50 μg i.v., n = 3.

Ends that are not written are not given here. Cy5 = Cy5 fluorescent dye

Take “P12-Cy5: P12 peptide conjugated to arginine-penetrating peptide (RRRRRRRR) at the C-terminus and Cy5 fluorescent group at the N-terminus (Cy5-LSMPWSPTTYASRRRRRRRR; also: linker between P12 and R8 not defined)”: the “Peak shift in flow cytometric analysis” value in the series with KYSE-30 cells [1] is “peak shift”. The “Binding / fluorescence in confocal immunocytochemistry” value in the series with KYSE-30 cells [2] is listed as “strong binding in the cytoplasm”. In the series on KYSE-30 xenografts (KYSE-30 tumor tissue resected after imaging), the “Binding to IGF2BP2-positive tumors (immunofluorescence of frozen tumor sections after imaging)” value is given as “strong binding”. Also, in the series with KYSE-30 xenografts (setting [4]), the TBRs over time entry is reported as “gradually increasing over time” and the “Time at which mean fluorescence intensity (MFI) peaked” value was 2 h. In the series with KYSE-30 xenografts (KYSE-30 xenograft mice, 50 μg Cy5-peptide via tail vein, different time points postinjection, n = 3), the “Tumor accumulation in NIRF imaging in comparison to C12-Cy5” value is listed as “significantly higher tumor accumulation”. In the series on KYSE-30 xenografts (biodistribution, KYSE-30 xenograft mice), the “Uptake in kidney relative to other organs” value was “relatively higher in the kidney than in other organs, including the tumors”. In addition, in the series with KYSE-30 xenografts (setting [5]), the “Clearance route from biodistribution” value is on record as “prominent renal clearance” and the “Enrichment in KYSE-30 tumors relative to organs (biodistribution)” value is reported as “high in all organs except the urinary organs”.
Take LSMPWSPTTYAS [P12 peptide (…) displayed on phage]: the OD value (450 nm) relative to the control (times that of the control) in series [3] was 10.
